In a melting point compilation (Tetko et al.; mined from patent text by program, amines drawn as free bases though some values may be those of a salt):

SMILES | melting point [°C]
CC1CCC(=NNc2ccccc2)c2nccc(=O)n21 (stereo unspecified) | 163 to 164
COc1c(Cl)cc(-c2cc(F)c(F)cc2-c2ccc(S(N)(=O)=O)cc2)cc1Cl | 146
COCC(=O)NCc1cccc2c1C(=O)N(C1CCC(=O)NC1=O)C2=O (stereo unspecified) | 196 to 198
CC(C)CC(NC(=O)C(Cc1ccccc1)NC(=O)C1CCCCC1CS)C(=O)O (stereo unspecified) | 156 to 158
CC(C)(Oc1ccc(OC(CCC(F)(F)F)c2cccc3c2cnn3-c2ccc(C(F)(F)F)cc2)cc1)C(=O)O (racemic) | 175 to 180
CCCCc1c2ccccc2cc2ccccc12 | 49
CCCCCCC(=O)CCCn1c(CCC)nc2c(N)nc3ccccc3c21 | 111 to 113
OCC=C[C@@H]1O[C@H]1C#CC#CC#Cc1ccccc1 (relative stereo) | 65 to 66
O=[N+]([O-])c1c[nH]nc1-c1ccc(Cl)cc1 | 172 to 174
CC(=NO)c1ccc(Nc2c3ccccc3nc3occc23)cc1 | 264 to 265
CC1(C)OC(=S)Nc2ccc(Br)cc21 | 221 to 222
CCc1cccc(CC)c1NC(=O)C(Cc1ccccc1)NC(C)=O (stereo unspecified) | 205 to 206
COc1ccc(Nc2nc(C)ccc2S(=O)(=O)c2ccc(OCc3ccccc3OC)cc2)c(C)c1 | 70 to 72
Cc1nc2c(O[C@@H]3c4ccccc4C[C@H]3O)cc(C(=O)NC3CC3)cc2n1C (relative stereo) | 148 to 149
Cn1cc(-c2cc3cccnc3[nH]2)c2cc(NS(C)(=O)=O)ccc21 | 223 to 224
COc1ccc(-c2c(C#N)nn(-c3c(Cl)cc(C(F)(F)F)cc3Cl)c2N)cc1 | 222
Cc1[nH]cnc1CSCCNC(=S)NC#N | 158 to 161
CCN(CC)C(=O)COc1ccccc1C(O)(CC)c1cccc(Cl)c1 (stereo unspecified) | 93 to 94
Cc1ccc(CCC(C)(C)NCC(O)c2cc3ccccc3o2)cc1 (stereo unspecified) | 121 to 122
COc1ccc(S(=O)(=O)N2CCC3(C=Cc4ccccc43)CC2)cc1 | 181 to 183
Nc1ccc(-c2nc3c(s2)C(=O)c2ccccc2C3=O)o1 | > 260
C=C(C(=O)c1ccc(C=CC(=O)O)cc1)c1c(F)c(F)c(F)c(F)c1F | 214 to 217
CS(=O)(=O)Nc1cccc(Nc2nc(OCC3CCCCC3)c3nc[nH]c3n2)c1 | 169 to 172
COc1ccc(C[C@@H]2COc3ccc(OCc4ccc5ccccc5n4)cc3[C@@H]2O)cc1C(=O)O (relative stereo) | 167 to 169

SMILES | melting point [°C]
COc1cc(C(=O)C=Cc2ccccc2)ccc1O | 61 to 64
CCOC(=O)c1c(CN(CC)CC)nc2cc(OC)c(OC)cc2c1-c1ccc(F)cc1 | 102 to 103
OC1CSC(Oc2ccccc2-c2ccoc2)C(O)C1O (stereo unspecified) | 102
CCC(=O)c1c(C(C)C)nn2ccccc12 | 41 to 42
CCC1(c2ccccc2)Cc2cc(OC)c(Cl)c(Cl)c2C1=O (stereo unspecified) | 139 to 141
CCc1c(CCC(=O)OC)ccc2c1OCO2 | 44 to 46
O=C(Nc1ccc(-n2nc(C(F)(F)F)cc2C2CC2)cc1)c1ccc2nccnc2c1 | 205 to 209
Cc1nc(-c2cccc(Cl)c2)n(-c2ccc(S(N)(=O)=O)cc2)n1 | 146 to 147
Cc1nc(N2CCN(CC3CCCCC3)C2=O)sc1C(=O)NCc1cccnc1 | 134 to 136
O=C(O)Cc1c(C(=O)c2ccc(Cl)cn2)[nH]c2ccc(Cl)cc12 | 259 to 260
CC1(C)NC(=O)CN1C(=O)CNC(=O)CN1CCCC1=O | 229 to 231
Cc1cc2c(o1)c(-c1ccc(COC(=O)CCC(=O)O)o1)nn2Cc1ccccc1 | 126 to 129
CCOc1ccc2c(c1)n(C(C)(C)CC(C)(C)C)c(=O)n2S(=O)(=O)c1ccc(NC(=O)N(CC)CC)cc1OC | 225
c1ccc(Cc2nc(C3CCCCC3)oc2CN2CCc3c([nH]c4ccccc34)C2)cc1 | 200 to 201
COc1cc2cc(-c3c[nH]c4ccccc34)cnc2cc1OC | 204 to 206
CN(NC=C1CSc2ccc(Cl)cc2C1=O)C(=O)OC(C)(C)C | 121 to 124
Cc1cc2[nH]c3ccccc3n2n1 | 250 to 252
COC(=O)CCC(=O)c1ccc(-c2cccc(F)c2)cc1 | 99 to 101
CC(C)c1nsc(N=C(F)N(C)C)c1C#N | 100 to 102
Cn1nnc(-c2ccc(C=Cc3ccc(-c4nc5ccccc5o4)cc3)cc2)c1-c1nc2ccccc2o1 | 246 to 249
CCCc1c(OC)n2c3c(=O)n(C)c(=O)n(C)c3nc2n(Cc2ccccc2)c1=O | 199 to 201
CSc1ccc(C(=O)O)c([N+](=O)[O-])c1 | 165 to 168
Cc1nc(-c2ccc(-c3cscn3)cc2)c(-c2ccc(S(N)(=O)=O)c(F)c2)o1 | 116 to 118
CN(C)C(=O)Cc1cc(Br)ccc1I | 127 to 129

SMILES | melting point [°C]
CC(=O)N1CCC(c2ccc(S(=O)(=O)Cl)cc2)CC1 | 133 to 134
COc1cc(Nc2nccc(-c3ccc(NC4CCCCC4O)nc3)n2)cc(OC)c1OC (stereo unspecified) | 147 to 148
CC1(C)CCC(C)(C)c2cc(N)ccc21 | 63 to 65
CCCC1Oc2cc(OC)c(Cl)c(Cl)c2C1=O (stereo unspecified) | 90 to 92
O=C(c1ccc2nonc2c1)N1CC2CCC1C2 (stereo unspecified) | 92 to 93
CCOC(=O)c1cnc2ccc(OC)nc2c1Nc1ccc(OC)cc1 | 115 to 117
CSc1cn(C(c2ccccc2)(c2ccccc2)c2ccccc2)c(F)n1 | 142 to 143
Cc1c(NC(=O)c2ccc(OCC3CC3)cc2)ccc2cc(CNCC(C)(C)O)n(C)c12 | 180
COc1cc2oc(-c3ccc(F)cc3)c(Br)c2c(OC)c1Br | 186 to 187
CN1C(=O)C(C(=O)Nc2ccccc2)c2cc3c(cc2S1(=O)=O)CCCC3 (stereo unspecified) | 203 to 204
Cc1cn(C(C(=O)N(C)C)C(C)C)nc1-c1ccccc1 (stereo unspecified) | 66.5 to 68.5
CS(=O)(=O)Nc1cc2occ(N(C=O)CC(=O)O)c(=O)c2cc1Oc1ccccc1 | 98 to 100
Nc1ccc2oc3ccc(OC(F)F)c(C(=O)Nc4c(Cl)cncc4Cl)c3c2c1 | > 270
CCOC(=O)CN1C(=O)C(C(C)C)N(C(C)=O)C=C1c1ccccc1 (racemic) | 96 to 98
O=C(CCCCN1CCCCC1)c1ccc2c(c1)Cc1cc(C(=O)CCCCN3CCCCC3)ccc1O2 | 129 to 130
COC1(OCCCCl)C=CC(C(=O)O)=CC1 (stereo unspecified) | 157 to 159
O=C(NCC12CC3CC(CC(C3)C1)C2)c1cc(CCCNCCCO)ncc1Cl | 84 to 85
COc1ccc(CSc2nnc(-c3ccc4nccn4c3)o2)cc1C(F)(F)F | 146 to 147
CC(C)C1CCN(Cc2ccc(COc3cccc4c3CN(C3CCC(=O)NC3=O)C4=O)cc2)CC1 (stereo unspecified) | 124 to 126
COc1cc(F)c(N2CCCC2=O)c(S(N)(=O)=O)c1 | 205
C[C@]12C[C@H](c3ccc(O)cc3)C3=C4CCC(=O)C=C4CC[C@H]3[C@@H]1CCC2=O | 220
Cc1cc(NC(=O)NCc2ccc3c(c2)CN(C2CCC(=O)NC2=O)C3=O)ccc1O (stereo unspecified) | 210 to 212
CC(O)CN1N=CCCC1c1ccc(Cl)c(Cl)c1 (stereo unspecified) | 75 to 77
